Where two headings read alike, the source gives them in different places.
Columns and labels:
Format in all cases: in vivo
[1] = system: Frankliniella occidentalis larvae; experiment: Frankliniella occidentalis Larva Controlling Activity Test; conditions: for mortality at 3.25 ppm: read-out: mortality for Frankliniella occidentalis larvae
Procedure: Frankliniella occidentalis Larva Controlling Activity Test:
The test compound is dissolved in acetone and diluted to the desired concentration. 0.5 mL of the prepared acetone medicinal liquid is added into a glass tube (the inner diameter is 1 cm, the length is 10 cm), and the glass tube is repeatedly rolled on a flat table until the acetone solution is completely volatilized. Soaking cabbage leaves in the liquid medicine with the corresponding concentration for 15 s, drying, placing in a glass tube, inoculating 10-20 heads of Frankliniella occidentalis larvae in the glass tube, repeating the treatment for three times, observing in a constant-temperature observation room after the treatment, investigating the number of live insects after 72 hours, and calculating the mortality.

[2] = system: Sensitive Plutella xylostella; experiment: Sensitive Plutella xylostella Controlling Activity Test
Source text: Sensitive Plutella xylostella Controlling Activity Test:
Test targets: Plutella xylostella, 3 rd instar larvae, a sensitive strain raised indoors.
The test method comprises the following steps: selecting fresh cabbage leaves cultivated in a greenhouse, making the cabbage leaves into round with the diameter of 3 cm by using a puncher, putting the circular blade into prepared liquid medicine to be soaked for 10 s according to the sequence from low dose to high dose of experimental design, naturally drying the cabbage leaves in the shade, putting the soaked cabbage leaves into a culture dish with filter paper and the diameter of 9 cm, inoculating regular healthy test insects, n=10, repeating the treatment for 3 times, and additionally setting blank control.

Tetranychus cinnabarinus = Tetranychus cinnabarinus Controlling Activity Test; conditions: 72 h; for mortality at 1.6 ppm: read-out: mortality against Tetranychus cinnabarinus; for mortality at 1.56 ppm / mortality at 3.125 ppm / mortality at 6.25 ppm / mortality at 12.5 ppm: in Phaseolus vulgaris
Procedure: Tetranychus cinnabarinus Controlling Activity Test:
The test compound was dissolved in acetone and diluted to the desired concentration with 0.1 wt % aqueous tween 80, the acetone content not exceeding 5 wt %.
One real leaf was removed from kidney bean seedlings grown to two real leaves, inoculating Tetranychus cinnabarinus, investigating the base number, performing whole plant spraying treatment by using a handheld sprayer, repeating the treatment for 3 times (the application amount of the preparation is about 0.5 g), observing in a constant-temperature observation room after the treatment, investigating the number of live mites after 72 hours, and calculating the mortality. The number of Tetranychus cinnabarinus inoculated in each time is 35-100.
Mortality%=(number of inoculated insects−number of live insects after drug administration)÷number of inoculated insects×100%

Phyllotreta striolata = Phyllotreta striolata Controlling Activity Test; conditions: 72 h, read-out: mortality against Phyllotreta striolata
Procedure: Phyllotreta striolata Controlling Activity Test:
Preparing liquid medicine according to the experimental design concentration, selecting fresh cabbage leaves, soaking the cabbage leaves for 15 s, taking out, airing, placing in a glass tube, connecting 20-25 heads of the Flea beetles adults with each tube, repeating the treatment for 3 times, investigating the death condition of the Phyllotreta striolata after 72 hours, and calculating and correcting the death rate.

Spodoptera frugiperda = Spodoptera frugiperda Indoor Toxicity Determination Test; conditions: in Zea mays, read-out: mortality against Spodoptera frugiperda
Source text: Spodoptera frugiperda Indoor Toxicity Determination Test
Test targets: Spodoptera frugiperda, 3rd instar larvae, a sensitive strain raised indoors.
The test method comprises the following steps: firstly, selecting fresh corn leaves cultivated in a greenhouse, cutting the fresh corn leaves into 5 cm-long leaf segments, sequentially arranging the test design from low dose to high dose, soaking the fresh corn leaves in prepared liquid medicine for 10 s, naturally drying the fresh corn leaves in the shade, then placing the dried corn leaves in a culture dish with filter paper and the diameter of 9 cm, inoculating regular healthy test insects, n=10, repeating the treatment for 3 times, and additionally arranging blank control.

[3] = system: Resistant Plutella xylostella; experiment: Resistant Plutella xylostella Controlling Activity Test; conditions: Plutella xylostella, in Raphanus sativus, 72 h
Procedure: Resistant Plutella xylostella Controlling Activity Test:
Leaf dipping method was used, the appropriate amount of radish leaves were dipped into the drug for 10 s, placed in a plastic petri dish padded with filter paper and dried naturally, each dish was connected with 10 heads of 2nd instar small cabbage moths, placed in the observation room at 24° C. and light (16/8 h). 72 h later observation was made, and the body of the insect was touched lightly with a brush and no reaction was regarded as a dead insect, which was repeated for three times, and a blank control was also set up without any additional agent.

[4] = read-out: mortality against Plutella xylostella
[5] = 3.25 ppm (3.125 mg/L), larvae, 72 hours
[6] = 1 ppm (1 mg/L), 3rd instar larvae, sensitive strain, read-out: mortality against Plutella xylostella

Cc1cc(C2=NOC(c3cc(Cl)c(F)c(Cl)c3)(C(F)(F)F)C2)ccc1C(=O)N(C(=O)C1CC1)C1CCS(=O)(=O)C1 (centres unmarked) [Compound I-22, N-cyclopropanoyl-4-(5-(3,5-dichloro-4-fluorophenyl)-5-(trifluoromethyl)-4,5-dihydroisoxazol-3-yl)-N-(1,1-dioxotetrahydrothiophen-3-yl)-2-methylbenzamide]
mortality at 3.25 ppm ([1]; 72 h): > 90% | mortality at 1 ppm [2, 4]: > 90%

Cc1cc(C2=NO[C@@](c3cc(Cl)c(F)c(Cl)c3)(C(F)(F)F)C2)ccc1C(=O)NC1CCS(=O)(=O)C1 (stereo partly drawn) [Compound I-17, 4-((S)-5-(3,5-dichloro-4-fluorophenyl)-5-(trifluoromethyl)-4,5-dihydroisoxazol-3-yl)-N-(1,1-dioxotetrahydrothiophen-3-yl)-2-methylbenzamide]
mortality at 1.6 ppm (Tetranychus cinnabarinus): > 90% | mortality at 1.56 ppm (Tetranychus cinnabarinus): 100% | mortality at 3.125 ppm (Tetranychus cinnabarinus): 100% | mortality at 6.25 ppm (Tetranychus cinnabarinus): 100% | mortality at 12.5 ppm (Tetranychus cinnabarinus): 100% | mortality at 3.25 ppm ([1]; 72 h): > 90% | mortality at 50 ppm (Phyllotreta striolata): > 90% | mortality at 1 ppm [2, 4]: > 90%

CCC(=O)N(C(=O)c1ccc(C2=NOC(c3cc(Cl)c(F)c(Cl)c3)(C(F)(F)F)C2)cc1C)C1CCS(=O)(=O)C1 (centres unmarked) [Compound I-10, N-propionyl-4-(5-(3,5-dichloro-4-fluorophenyl)-5-(trifluoromethyl)-4,5-dihydroisoxazol-3-yl)-N-(1,1-dioxotetrahydrothiophen-3-yl)-2-methylbenzamide]
mortality at 1.6 ppm (Tetranychus cinnabarinus): > 90% | mortality at 1.56 ppm (Tetranychus cinnabarinus): 97.2% | mortality at 3.125 ppm (Tetranychus cinnabarinus): 100% | mortality at 6.25 ppm (Tetranychus cinnabarinus): 100% | mortality at 12.5 ppm (Tetranychus cinnabarinus): 100% | mortality at 1 ppm (Spodoptera frugiperda): > 90% | mortality at 3.25 ppm ([1]; 72 h): > 90% | mortality at 1.56 ppm ([1]; in Brassica oleracea, 72 h): 92% | mortality at 3.125 ppm ([1]; in Brassica oleracea, 72 h): 100% | mortality at 6.25 ppm ([1]; in Brassica oleracea, 72 h): 100% | mortality at 1 ppm [2, 4]: > 90%

Cc1cc(C2=NO[C@@](c3cc(Cl)c(F)c(Cl)c3)(C(F)(F)F)C2)ccc1C(=O)N[C@@H]1CCS(=O)(=O)C1 [Compound I-16]
mortality at 3.25 ppm [1, 5]: > 90% | mortality at 1 ppm [2, 6]: > 90%

CO/N=C/NC(=O)c1ccc(C2=NOC(c3cc(Cl)cc(Cl)c3)(C(F)(F)F)C2)cc1C (centres unmarked) [Fluxametamide, 4-[5-(3,5-dichlorophenyl)-4,5-dihydro-5-(trifluoromethyl)-3-isoxazolyl]-N-[(methoxyamino)methylene]-2-methylbenzamide, reference compound]
mortality at 1.56 ppm (Tetranychus cinnabarinus): 0% | mortality at 3.125 ppm (Tetranychus cinnabarinus): 25.6% | mortality at 6.25 ppm (Tetranychus cinnabarinus): 81.5% | mortality at 12.5 ppm (Tetranychus cinnabarinus): 96.8% | mortality at 1.56 ppm ([1]; in Brassica oleracea, 72 h): 0% | mortality at 3.125 ppm ([1]; in Brassica oleracea, 72 h): 0% | mortality at 6.25 ppm ([1]; in Brassica oleracea, 72 h): 0% | mortality at 0.333 ppm ([2]; in Brassica oleracea, 72 h): 0% | mortality at 1 ppm ([2]; in Brassica oleracea, 72 h): 5% | mortality at 0.2 ppm [3]: 3.33% | mortality at 1 ppm [3]: 93.3% | mortality at 5 ppm [3]: 100%

Cc1cc(C2=NOC(c3cc(Cl)c(Cl)c(Cl)c3)(C(F)(F)F)C2)ccc1C(=O)NC1CCS(=O)(=O)C1 (centres unmarked) [Compound I-3, N-(1,1-dioxotetrahydrothiophen-3-yl)-2-methyl-4-(5-(3,4,5-trichlorophenyl)-5-(trifluoromethyl)-4,5-dihydroisoxazol-3-yl) benzamide]
mortality at 1.6 ppm (Tetranychus cinnabarinus): > 90% | mortality at 3.25 ppm ([1]; 72 h): > 90% | mortality at 1 ppm [2, 4]: > 90%

Cc1cc(C2=NOC(c3cc(Cl)c(F)c(Cl)c3)(C(F)(F)F)C2)ccc1C(=O)NC1CS(=O)(=O)C1 (centres unmarked) [X.82, reference compound]
mortality at 1.56 ppm ([1]; 1.56 ppm, larvae, cabbage leaves soaked 15 s, 72 hours, read-out: Mortality (%)): 0% | mortality at 3.125 ppm ([1]; 3.125 ppm, larvae, cabbage leaves soaked 15 s, 72 hours, read-out: Mortality (%)): 0% | mortality at 6.25 ppm ([1]; 6.25 ppm, larvae, cabbage leaves soaked 15 s, 72 hours, read-out: Mortality (%)): 65% | mortality at 0.333 ppm ([2]; 72 h, 0.333 ppm, 3rd instar larvae, sensitive strain, cabbage leaves soaked 10 s, three days, read-out: Mortality (%)): 0% | mortality at 1 ppm ([2]; 72 h, 1 ppm, 3rd instar larvae, sensitive strain, cabbage leaves soaked 10 s, three days, read-out: Mortality (%)): 10%

Cc1cc(C2=NOC(c3cc(Cl)c(F)c(Cl)c3)(C(F)(F)F)C2)ccc1C(=O)N[C@@H]1CCS(=O)(=O)C1 (stereo partly drawn) [Compound I-14, 4-(5-(3,5-dichloro-4-fluorophenyl)-5-(trifluoromethyl)-4,5-dihydroisoxazol-3-yl)-N—((R)-1,1-dioxotetrahydrothiophen-3-yl)-2-methylbenzamide]
mortality at 1.6 ppm (Tetranychus cinnabarinus): > 90% | mortality at 1.56 ppm (Tetranychus cinnabarinus): 100% | mortality at 3.125 ppm (Tetranychus cinnabarinus): 100% | mortality at 6.25 ppm (Tetranychus cinnabarinus): 100% | mortality at 12.5 ppm (Tetranychus cinnabarinus): 100% | mortality at 1 ppm (Spodoptera frugiperda): > 90% | mortality at 3.25 ppm ([1]; 72 h): > 90% | mortality at 50 ppm (Phyllotreta striolata): > 90% | mortality at 1 ppm [2, 4]: > 90%

Cc1cc(C2=NO[C@@](c3cc(Cl)c(F)c(Cl)c3)(C(F)(F)F)C2)ccc1C(=O)N[C@H]1CCS(=O)(=O)C1 [Compound I-15]
mortality at 3.25 ppm [1, 5]: > 90% | mortality at 1 ppm [2, 6]: > 90%

Cc1cc(C2=NOC(c3cc(Cl)c(F)c(Cl)c3)(C(F)(F)F)C2)ccc1C(=O)N[C@H]1CCS(=O)(=O)C1 (stereo partly drawn) [Compound I-13, 4-(5-(3,5-dichloro-4-fluorophenyl)-5-(trifluoromethyl)-4,5-dihydroisoxazol-3-yl)-N—((S)-1,1-dioxotetrahydrothiophen-3-yl)-2-methylbenzamide]
mortality at 3.25 ppm ([1]; 72 h): > 90% | mortality at 1 ppm [2, 4]: > 90%

Cc1cc(C2=NOC(c3cc(Cl)c(F)c(Cl)c3)(C(F)(F)F)C2)ccc1C(=O)N(C(=O)C(C)C)C1CCS(=O)(=O)C1 (centres unmarked) [Compound I-21, N-isopropionyl-4-(5-(3,5-dichloro-4-fluorophenyl)-5-(trifluoromethyl)-4,5-dihydroisoxazol-3-yl)-N-(1,1-dioxotetrahydrothiophen-3-yl)-2-methylbenzamide]
mortality at 3.25 ppm ([1]; 72 h): > 90% | mortality at 1 ppm [2, 4]: > 90%

CNC(=O)c1cc(Cl)cc(C)c1NC(=O)c1cc(Br)nn1-c1ncccc1Cl [Chlorantraniliprole, reference compound]
mortality at 0.2 ppm [3]: 33.3% | mortality at 1 ppm [3]: 40% | mortality at 5 ppm [3]: 66.7%

CC(=O)N(C(=O)c1ccc(C2=NOC(c3cc(Cl)c(F)c(Cl)c3)(C(F)(F)F)C2)cc1C)C1CCS(=O)(=O)C1 (centres unmarked) [Compound I-9, N-acetyl-4-(5-(3,5-dichloro-4-fluorophenyl)-5-(trifluoromethyl)-4,5-dihydroisoxazol-3-yl)-N-(1,1-dioxotetrahydrothiophen-3-yl)-2-methylbenzamide]
mortality at 1.6 ppm (Tetranychus cinnabarinus): > 90% | mortality at 3.25 ppm ([1]; 72 h): > 90% | mortality at 1 ppm [2, 4]: > 90% | mortality at 0.2 ppm [3]: 43.3% | mortality at 1 ppm [3]: 100% | mortality at 5 ppm [3]: 100%

Cc1cc(C2=NO[C@](c3cc(Cl)c(F)c(Cl)c3)(C(F)(F)F)C2)ccc1C(=O)N[C@H]1CCS(=O)(=O)C1 [Compound I-18]
mortality at 3.25 ppm [1, 5]: > 90% | mortality at 1 ppm [2, 6]: > 90%

Cc1cc(C2=NOC(c3cc(Cl)c(F)c(Cl)c3)(C(F)(F)F)C2)ccc1C(=O)NC1CCSC1 (centres unmarked) [Compound I-23]
mortality at 3.25 ppm [1, 5]: > 90% | mortality at 1 ppm [2, 6]: > 90%
